Counter-ions that a name gives are not always drawn. Like-named read-outs stand apart in the source and are kept apart here.
Legend:
[1] = Test Example 7 (1): acute toxicity test in mice; details: mouse, in vivo, read-out: 50% lethal dose (LD50)
Protocol: (1) Acute toxicity test of amosulalol hydrochloride with mice:
Investigation was conducted on the acute toxicity of amosulalol hydrochloride in mice through oral administration or intravenous administration.
Amosulalol was given to 7-weeks aged ICR mice by oral administration by use of an oral probe or through a tail vein.

choroidal blood flow = details: cited from earlier work
[2] = tested on: Normal Intraocular Pressure; experiment: Test Example 1 (1): intraocular pressure reducing activity on normal intraocular pressure, pigmented rabbits; assay type: in vivo, pigmented rabbits (Dutch belted rabbits); details: 0.5% ophthalmic solution, 30 min and 1 hour after topical application
Protocol: Intraocular Pressure Reducing Activity of Amosulalol Hydrochloride on Normal Intraocular Pressure in Pigmented Rabbits Male pigmented rabbits (Dutch belted rabbits) weighing about 2 kg, after having been confirmed to be free from ocular abnormalities; were bred in a breeding room maintained at a temperature of 24± 4° C. and at a relative humidity of 55± 15%, while they were given solid food (Labo RG-RO manufactured by Nihon Nohsan Kogyo K.K.) at a daily rate of 100 g per rabbit and allowed free access to tap water as drinking water. As a test drug, amosulalol hydrochloride was processed into 0.05% (hereinafter, the term "%" is to be understood to designate "w/v %") and 1.0% aqueous solutions which were used in the test, and 0.5% timolol maleate ophthalmic solution [Timoptol (registered trademark): Ban-yu Pharmaceutical Co.] and physiological saline were used as a positive control drug and a control substance, respectively. (1) Measurement of intraocular pressure: Thirty two (32) rabbits were divided into four groups each consisting of 8 rabbits, and 50 μl of test drugs as well as the control drug and physiological saline were applied topically to one eye each of the individual rabbits, with the other being left untreated. Before instillation and 0.5, 1, 2, 3, 4, 6 and 8 hours after topical application,intraocular pressure for both of eyes of each rabbit was measured using a Pneumatonograph (manufactured by Alcon Co. Hereinafter referred to briefly as "PTG"). Shown in FIG. 1 are time-course changes of intraocular pressure taken with the eyes treated by instillation of each of the test drugs, control drug and physiological saline, with time (hour) after instillation taken as abscissa and intraocular pressure (mmHg as ordinate; each value in mean±S.E. (number of cases is 8). The signs "a", "b", "d" and "e" designate physiological saline, 0.05% aqueous solution of amosulalol hydrochloride, 1.0% aqueous solution of amosulalol hydrochloride, and 0.5% ophthalmic solution of timolol maleate, respectively.

[3] = tested on: Normal Intraocular Pressure; experiment: Test Example 2 (1): intraocular pressure reducing activity on normal intraocular pressure, pigmented rabbits; assay type: in vivo, pigmented rabbits (Dutch belted rabbits); details: 0.5% ophthalmic solution, treated eyes, 30 min and 1 hour after topical application
Protocol: Intraocular Pressure Reducing Activity of Amosulalol Hydrochloride on Normal Intraocular Pressure in Pigmented Rabbits Forty (40) male pigmented rabbits (Dutch belted rabbits) weighing about 2 kg, after having been confirmed to be free from ocular abnormalities, were bred in a breeding room maintained at a temperature of 24± 4° C. and at a relative humidity of 55± 15%, while they were fed solid food (Labo RG-RO, manufactured by Nihon Nohsan Kogyo K.K.) at a daily rate of 100 g per rabbit and allowed free access to tap water as drinking water. As a test drug, amosulalol hydrochloride was processed into 0.05%, 0.5% and 1.0% aqueous solutions which were used in the test, and 0.5% timolol maleate ophthalmic solution [Timoptol (registered trademark): Ban-yu Pharmaceutical Co.] and physiological saline were used as a positive control drug and a control substance, respectively. (1) Measurement of intraocular pressure: Forty (40) rabbits were divided into five groups. each consisting of 8 heads, and 50 μl of test drug as well as the control drug and physiological saline were applied topically to one eye each of the individual rabbits, with the other being left untreated. Before instillation and 0.5, 1, 2, 3, 4, 6 and 8 hours after topical application respectively, intraocular pressure for both eyes of each rabbit was measured using PTG. Time-course changes of intraocular pressure measurements taken with the eyes treated by instillation of each of the test drugs, control drug and physiological saline, are illustrated in FIGS. 2 (for treated eyes) and 3 (for non-treated eyes), respectively, with time (hour) after instillation taken as abscissa and intraocular pressure (mmHg) as ordinate; each value in mean ± S.E. (the number in each case is 8). The signs "a", "b", "c", "d" and "e" designate physiological saline, 0.05% aqueous solution of amosulalol hydrochloride, 0.5% aqueous solution of amosulalol hydrochloride, 1.0% aqueous solution of amosulalol hydrochloride and 0.5% solution of timolol maleate, respectively.

COc1ccccc1OCCNCC(O)c1ccc(C)c(S(N)(=O)=O)c1 (stereo not shown) [Amosulalol, 5-[1-hydroxy-2-[2-(2-methoxyphenoxy)ethylamino]ethyl]-2-methylbenzenesulfonamide]
LD50 ([1]; iv, intravenous (tail vein), female mice): 134 mg/kg
LD50 ([1]; iv, intravenous (tail vein), male mice): 104 mg/kg
LD50 ([1]; po, female mice): 5700 mg/kg
LD50 ([1]; po, male mice): 6500 mg/kg

CCCC(=O)N1CCCN(c2nc(N)c3cc(OC)c(OC)cc3n2)CC1 [bunazosin hydrochloride]
choroidal blood flow (choroidal blood flow): can increase choroidal blood flow

CC(C)(C)NC[C@H](O)COc1nsnc1N1CCOCC1 [timolol maleate, reference compound]
drop in intraocular pressure [2]: 2.4 mmHg
drop in intraocular pressure [3]: 2.4 mmHg

Source: US5663205A, “Pharmaceutical composition for use in glaucoma treatment” (Senju Pharmaceutical Co. Ltd., priority 1992, dated 1997)
